The text below walks through data of ChEMBL document CHEMBL1121759, “Aporphines, 36. Dopamine receptor interactions of trihydroxyaporphines. Synthesis, radioreceptor binding, and striatal adenylate cyclase stimulation of 2,10,11-trihydroxyaporphines in comparison with other hydroxylated aporphines” (J Med Chem, 1981).

What all share (assay type): tissue-based
The target of assay [1] is T1, Adenylate cyclase (Rattus norvegicus) (UniProt D4A3N4+P26770+Q04400+P26769+Q03343+P40146+Q8CFM9+P21932). Nature of the assay: Dopamine sensitive adenylate cyclase activity (stimulation) in homogenates of rat brain striatal tissue was assessed at 50 uM; + = <40% increase of cAMP above basal activity.
The target in assay [2] is T1, Adenylate cyclase (Rattus norvegicus). Nature of the assay: Dopamine sensitive adenylate cyclase activity (stimulation) in homogenates of rat brain striatal tissue was assessed at 50 uM of compound; Inhibitis the cyclase activity.
Assay [3] has the same target. Nature of the assay: Dopamine sensitive adenylate cyclase activity (stimulation) in homogenates of rat brain striatal tissue was assessed at 50 uM of compound; ++ = 41-60% incresae of cAMP above basal activity.
For assay [4] the target is unchanged. Nature of the assay: Dopamine sensitive adenylate cyclase activity (stimulation) in homogenates of rat brain striatal tissue was assessed at 50 uM of compound; +++ = 61-80% incresae of cAMP above basal activity.

Active and inactive are the calls of the source. The rule behind the calls is not given here.

`C=CCN1CCc2cc(O)cc3c2[C@H]1Cc1ccc(O)c(O)c1-3`: the Stimulation result in assay [1] is “Partially active”.
Same read-out and setting: as for `CCCN1CCc2cc(O)cc3c2[C@H]1Cc1ccc(O)c(O)c1-3`, the entry is “Partially active”.
Turning to `Oc1ccc2c(c1O)-c1cccc3c1[C@@H](C2)N(CCCl)CC3`, in assay [2], the Stimulation result was “inactive”.
Consider `CN1CCc2cc(O)cc3c2[C@H]1Cc1ccc(O)c(O)c1-3`, for which the Stimulation result in assay [3] was “Active”.
Take `CCCN1CCc2cccc3c2[C@H]1Cc1cccc(O)c1-3`: the Stimulation entry in assay [1] is “Partially active”.
As to `C#CCN1CCc2cc(O)cc3c2[C@H]1Cc1ccc(O)c(O)c1-3`, in assay [1], the Stimulation entry was “Partially active”.
For `CCCN1CCc2cccc3c2[C@H]1Cc1ccc(O)c(O)c1-3` (stereo in doubt; 1b), the Stimulation entry in assay [4] is “Partially active”.
In the case of `CN1CCc2cccc3c2C1Cc1ccc(O)cc1-3` (stereo not drawn), in assay [1], the Stimulation entry is “Partially active”.
For `CCCN1CCc2cccc3c2[C@H]1Cc1ccc(O)c(O)c1-3` (stereo in doubt; 1c), in assay [3], the Stimulation entry was “Active”.
As to `CN1CCc2cccc3c2[C@H]1Cc1ccc(O)c(O)c1-3`, the Stimulation entry in assay [4] was “Partially active”.
Regarding `CCN1CCc2cc(O)cc3c2[C@H]1Cc1ccc(O)c(O)c1-3`, the Stimulation result in assay [1] was “Partially active”.
On the same count and under the same terms, as for `Oc1cc2c3c(c1)-c1c(ccc(O)c1O)C[C@H]3NCC2`, the entry is “Partially active”.
Turning to `OCCN1CCc2cccc3c2[C@H]1Cc1ccc(O)c(O)c1-3`, in assay [1], the Stimulation result is “Partially active”.
